From ChEMBL document CHEMBL1138347, “Multi-target-directed drug design strategy: from a dual binding site acetylcholinesterase inhibitor to a trifunctional compound against Alzheimer's disease” (J Med Chem, 2007)

Columns and labels:
Acetylcholinesterase = Acetylcholinesterase (Homo sapiens, UniProt P22303)
Description: Inhibition of human serum recombinant AChE by Ellman's method

Cholinesterase = Cholinesterase (Homo sapiens, UniProt P06276)
Description: Inhibition of human serum recombinant BChE by Ellman's method

[1] = Inhibition of human AChE-induced amyloid-beta (1-40) aggregation by thioflavin T fluorescene method

Cholinesterase, sequence (P06276 whole entry): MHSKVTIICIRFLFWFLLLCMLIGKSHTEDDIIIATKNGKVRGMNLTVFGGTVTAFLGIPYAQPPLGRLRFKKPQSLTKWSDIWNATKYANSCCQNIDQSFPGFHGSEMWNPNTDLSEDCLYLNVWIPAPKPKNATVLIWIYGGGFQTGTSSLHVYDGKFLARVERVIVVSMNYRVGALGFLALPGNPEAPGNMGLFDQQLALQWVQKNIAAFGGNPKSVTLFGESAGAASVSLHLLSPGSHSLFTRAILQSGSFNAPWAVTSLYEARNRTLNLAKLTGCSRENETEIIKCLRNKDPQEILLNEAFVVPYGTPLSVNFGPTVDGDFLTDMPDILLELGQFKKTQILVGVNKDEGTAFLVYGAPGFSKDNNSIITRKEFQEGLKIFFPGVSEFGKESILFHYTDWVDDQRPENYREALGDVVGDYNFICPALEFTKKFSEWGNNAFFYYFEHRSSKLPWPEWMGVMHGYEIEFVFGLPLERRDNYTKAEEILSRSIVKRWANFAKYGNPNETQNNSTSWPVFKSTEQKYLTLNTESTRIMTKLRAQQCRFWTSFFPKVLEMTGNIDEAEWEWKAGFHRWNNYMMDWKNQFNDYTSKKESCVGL
Acetylcholinesterase, sequence (P22303 whole entry): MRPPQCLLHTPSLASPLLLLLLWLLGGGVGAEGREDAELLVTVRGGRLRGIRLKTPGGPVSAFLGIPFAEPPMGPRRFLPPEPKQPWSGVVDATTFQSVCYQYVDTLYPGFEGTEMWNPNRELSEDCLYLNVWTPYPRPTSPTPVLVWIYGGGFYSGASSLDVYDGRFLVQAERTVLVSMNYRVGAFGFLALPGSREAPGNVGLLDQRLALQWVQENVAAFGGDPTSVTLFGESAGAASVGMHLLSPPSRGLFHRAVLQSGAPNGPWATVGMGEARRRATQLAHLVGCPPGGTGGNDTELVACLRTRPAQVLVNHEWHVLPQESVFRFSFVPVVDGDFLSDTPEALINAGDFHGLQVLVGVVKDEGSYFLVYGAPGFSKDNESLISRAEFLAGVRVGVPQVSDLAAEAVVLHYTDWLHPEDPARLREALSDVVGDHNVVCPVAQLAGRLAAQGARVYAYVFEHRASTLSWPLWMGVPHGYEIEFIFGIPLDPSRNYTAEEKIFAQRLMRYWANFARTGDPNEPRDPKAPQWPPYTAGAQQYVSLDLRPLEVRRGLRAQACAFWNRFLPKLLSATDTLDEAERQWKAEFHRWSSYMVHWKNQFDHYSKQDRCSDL

SMILES	IC50 (Acetylcholinesterase) [µM]	IC50 (Cholinesterase) [µM]	IC50 [1] [µM]
c1ccc2c(NCCOCCOCCNc3c4c(nc5ccccc35)CCCC4)c3c(nc2c1)CCCC3	0.0197	0.0351	
O=C(CCCNc1c2c(nc3ccccc13)CCCC2)CCCNc1c2c(nc3ccccc13)CCCC2		0.0113	
c1ccc2c(NCCCCCCCNc3c4c(nc5ccccc35)CCCC4)c3c(nc2c1)CCCC3		0.00566	41.7
O=C(NCCNc1c2c(nc3ccccc13)CCCC2)C(=O)NCCNc1c2c(nc3ccccc13)CCCC2	0.00665	0.00544	
